In patent US20130018033A1, “RAF INHIBITOR COMPOUNDS AND METHODS OF USE THEREOF” (ARRAY BIOPHARMA INC., priority 2009, published 2013) one finds IC50 data, which are given here for 19 molecules.

The structures appear in SMILES notation. Where two headings read alike, the source gives them in different places. Bounds are passed on as bounds.

For one test, the target named is T1, V600E full-length B-Raf (Homo sapiens, UniProt P15056, V600E).
T1 construct: 1 μM FSBA-MEK and 20 nM V600E full-length B-Raf; made in house; host or cells: Sf9 insect cells (baculovirus)
T1 sequence (P15056 whole entry V600E): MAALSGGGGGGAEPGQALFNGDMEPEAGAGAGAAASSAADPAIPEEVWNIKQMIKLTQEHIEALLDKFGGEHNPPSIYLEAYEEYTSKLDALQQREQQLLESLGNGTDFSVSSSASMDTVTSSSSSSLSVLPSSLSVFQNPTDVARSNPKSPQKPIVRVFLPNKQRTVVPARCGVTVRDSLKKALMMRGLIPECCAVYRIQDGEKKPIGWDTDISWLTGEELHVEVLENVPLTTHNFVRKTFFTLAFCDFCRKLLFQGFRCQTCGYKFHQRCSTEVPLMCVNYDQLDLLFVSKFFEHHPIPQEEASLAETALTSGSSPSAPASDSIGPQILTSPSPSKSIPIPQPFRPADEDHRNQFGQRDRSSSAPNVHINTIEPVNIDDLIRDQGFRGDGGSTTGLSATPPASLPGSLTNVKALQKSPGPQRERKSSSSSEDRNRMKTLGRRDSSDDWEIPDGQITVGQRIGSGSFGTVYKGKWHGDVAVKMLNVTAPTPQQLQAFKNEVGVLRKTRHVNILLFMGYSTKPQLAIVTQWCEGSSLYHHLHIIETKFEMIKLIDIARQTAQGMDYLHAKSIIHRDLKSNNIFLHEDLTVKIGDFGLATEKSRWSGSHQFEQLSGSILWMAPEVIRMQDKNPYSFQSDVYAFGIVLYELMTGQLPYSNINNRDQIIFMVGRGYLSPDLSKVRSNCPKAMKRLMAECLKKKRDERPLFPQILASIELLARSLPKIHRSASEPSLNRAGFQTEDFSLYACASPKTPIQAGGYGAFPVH
Kind of test: B-Raf IC50 assay (Example A). The format is biochemical. From the text: Determining the activity of Raf in the sample is possible by a number of direct and indirect detection methods (US 2004/0082014). Activity of human recombinant B-Raf protein may be assessed in vitro by assay of the incorporation of radio labeled phosphate to recombinant MAP kinase (MEK), a known physiologic substrate of B-Raf, according to US 2004/0127496 and WO 03/022840. The activity/inhibition of V600E full-length B-Raf was estimated by measuring the incorporation of radio labeled phosphate from [γ-^33P]ATP into FSBA-modified wild-type MEK (see Example A).
Activity of human recombinant B-Raf protein may be assessed in vitro by assay of the incorporation of radio labeled phosphate to recombinant MAP kinase (MEK), a known physiologic substrate of B-Raf, according to US 2004/0127496 and WO 03/022840. Catalytically active human recombinant B-Raf protein is obtained by purification from sf9 insect cells infected with a human B-Raf recombinant baculovirus expression vector.
The activity/inhibition of V600E full-length B-Raf was estimated by measuring the incorporation of radio labeled phosphate from [γ-^33P]ATP into FSBA-modified wild-type MEK. The 30-μL assay mixtures contained 25 mM Na Pipes, pH 7.2, 100 mM KCl, 10 mM MgCl2, 5 mM β-glycerophosphate, […], 4 μM ATP, 500 nCi [γ-^33P]ATP, 1 μM FSBA-MEK and 20 nM V600E full-length B-Raf. Incubations were carried out at 22° C. in a Costar 3365 plate (Corning). Prior to the assay, the B-Raf and FSBA-MEK were preincubated together in assay buffer at 1.5×(20 μL of 30 nM and 1.5 μM, respectively) for 15 minutes, and the assay was initiated by the addition of 10 μL of 10 μM ATP. Following the 60-minute incubation, the assay mixtures were quenched by the addition of 100 μL of 25% TCA, the plate was mixed on a rotary shaker for 1 minute, and the product was captured on a Perkin-Elmer GF/B filter plate using a Tomtec Mach III Harvester. After sealing the bottom of the plate, 35 μL of Bio-Safe II (Research Products International) scintillation cocktail were added to each well and the plate was top-sealed and counted in a Topcount NXT (Packard).

Test [1] deals with basal ERK1/2 phosphorylation in Malme-3M cells. Nature of the test: Cellular ERK 1/2 phosphorylation assay (Example A1). Format: cell-based. The following applies: Homo sapiens, 1 hour incubation, pERK normalized to total ERK, read-out: P-ERK Malme3-M IC50. The protocol:
Inhibition of basal ERK1/2 phosphorylation was determined by the following in vitro […], which comprises incubating cells with a compound of Formula I for 1 hour and quantifying the fluorescent pERK signal on fixed cells and normalizing to total ERK signal.
Malme-3M cells were obtained from ATCC and grown in RPMI-1640 supplemented with 10% fetal bovine serum. Cells were plated in 96-well plates at 24,000 cells/well and allowed to attach for 16-20 hours at 37° C., 5% CO2. The media was removed, and DMSO-diluted compounds were added in RPMI-1640 at a final concentration of 1% DMSO. The cells were incubated with the compounds for 1 hour at 37° C., 5% CO2. The cells were washed with PBS and fixed in 3.7% formaldehyde in PBS for 15 minutes. This was followed by washing in PBS/0.05% Tween20 and permeabilizing in −20° C. 100% MeOH for 15 minutes. Cells were washed in PBS/0.05% Tween20 then blocked in Odyssey blocking buffer (LI-COR Biosciences) for 1 hour. Antibodies to phosphorylated ERK (1:400, Cell Signaling #9106, monoclonal) and total ERK (1:400, Santa Cruz Biotechnology #sc-94, polyclonal) were added to the cells and incubated 16-20 hours at 4° C. After washing with PBS/0.05% Tween20, the cells were incubated with fluorescently-labeled secondary antibodies (1:1000 goat anti-rabbit IgG-IRDye800, Rockland and 1:500 goat anti-mouse IgG-Alexa Fluor 680, Molecular Probes) for an additional hour. Cells were then washed and analyzed for fluorescence at both wavelengths using the Odyssey Infrared Imaging System (LI-COR Biosciences). Phosphorylated ERK signal was normalized to total ERK signal.

[2] abbreviates: B-Raf V600E assay of Example A, read-out: IC50.
[3] abbreviates: [γ-33P]ATP incorporation into FSBA-MEK, 4 μM ATP, read-out: BRAF V600E IC50.

Broadly, the IC50 is the concentration that gives 50% inhibition. Regarding `O=C(Nc1c(F)ccc(NS(=O)(=O)CCCF)c1F)c1cccc2cncnc12` [Example 55, Quinazoline-8-carboxylic acid [2,6-difluoro-3-(3-fluoro-propane-1-sulfonylamino)-phenyl]-amide], the IC50 at V600E full-length B-Raf (setting [2]) is less than 100 nM; on V600E full-length B-Raf (setting [3]), 32.2 nM; in test [1] it was 92.8 nM.

In the case of `CC(C)CS(=O)(=O)Nc1ccc(F)c(NC(=O)c2cccc3c(N)ncnc23)c1F` [Example 12, 4-Amino-quinazoline-8-carboxylic acid [2,6-difluoro-3-(2-methyl-propane-1-sulfonylamino)-phenyl]-amide], the half-maximal inhibitory concentration (IC50) at V600E full-length B-Raf (setting [2]) is less than 100 nM; on V600E full-length B-Raf (setting [3]), 1.55 nM; in test [1], 8.54 nM.

On to `O=C(Nc1c(Cl)ccc(NS(=O)(=O)CCCF)c1Cl)c1cccc2cncnc12` [Example 57, Quinazoline-8-carboxylic acid [2,6-dichloro-3-(3-fluoro-propane-1-sulfonylamino)-phenyl]-amide], for which the IC50 is less than 100 nM at V600E full-length B-Raf (setting [2]), 0.96 nM at V600E full-length B-Raf (setting [3]) and 87.6 nM in test [1].

Take `O=C(Nc1c(Cl)ccc(NS(=O)(=O)CCCF)c1F)c1cccc2cncnc12` [Example 59, Quinazoline-8-carboxylic acid [6-chloro-2-fluoro-3-(3-fluoro-propane-1-sulfonylamino)-phenyl]-amide]: the values for the IC50 (on V600E full-length B-Raf (setting [2]); on V600E full-length B-Raf (setting [3]); in test [1]) were less than 100 nM, 1.49 nM and 83.7 nM, respectively.

As for `Nc1ncnc2c(C(=O)Nc3c(F)ccc(NS(=O)(=O)CCCF)c3F)ccnc12` [Example 66, 4-Amino-pyrido[3,2-d]pyrimidine-8-carboxylic acid [2,6-difluoro-3-(3-fluoro-propane-1-sulfonylamino)-phenyl]-amide], the IC50 was less than 100 nM on V600E full-length B-Raf (setting [2]), 0.75 nM on V600E full-length B-Raf (setting [3]) and 3.04 nM in test [1].

`CCCS(=O)(=O)Nc1ccc(F)c(NC(=O)c2cccc3c(N)ncnc23)c1` [Example 6, 4-Amino-quinazoline-8-carboxylic acid [2-fluoro-5-(propane-1-sulfonylamino)-phenyl]-amide]: the IC50 at V600E full-length B-Raf (setting [2]) is less than 100 nM; at V600E full-length B-Raf (setting [3]) it was 50.4 nM; in test [1] it was 1720 nM.

Take `Nc1ncnc2c(C(=O)Nc3c(F)ccc(NS(=O)(=O)c4ccccc4)c3F)cccc12` [Example 32, 4-Amino-quinazoline-8-carboxylic acid (3-benzenesulfonylamino-2,6-difluoro-phenyl)-amide]: the IC50 at V600E full-length B-Raf (setting [2]) is less than 100 nM; at V600E full-length B-Raf (setting [3]) it was 0.38 nM; in test [1] it was 17.7 nM.

Regarding `CCCS(=O)(=O)Nc1ccc(Cl)c(NC(=O)c2cccc3cncnc23)c1F` [Example 58, Quinazoline-8-carboxylic acid [6-chloro-2-fluoro-3-(propane-1-sulfonylamino)-phenyl]-amide], the IC50 at V600E full-length B-Raf (setting [2]) was less than 100 nM; at V600E full-length B-Raf (setting [3]), 17.1 nM; in test [1], 301 nM.

Turning to `Nc1ncnc2c(C(=O)Nc3c(F)c(F)cc(NS(=O)(=O)CCCF)c3F)cccc12` [Example 26, 4-Amino-quinazoline-8-carboxylic acid [2,3,6-trifluoro-5-(3-fluoro-propane-1-sulfonylamino)-phenyl]-amide], the IC50 is less than 100 nM on V600E full-length B-Raf (setting [2]), 0.31 nM on V600E full-length B-Raf (setting [3]) and 10.8 nM in test [1].

On to `Cc1ncnc2c(C(=O)Nc3c(Cl)ccc(NS(=O)(=O)CCCF)c3F)cccc12` [Example 62, 4-Methyl-quinazoline-8-carboxylic acid [6-chloro-2-fluoro-3-(3-fluoro-propane-1-sulfonylamino)-phenyl]-amide], for which the IC50 at V600E full-length B-Raf (setting [2]) is less than 100 nM; at V600E full-length B-Raf (setting [3]), 3.07 nM; in test [1], 44 nM.

On to `CCS(=O)(=O)Nc1ccc(F)c(NC(=O)c2cccc3c(N)ncnc23)c1F` [Example 19, 4-Amino-quinazoline-8-carboxylic acid (3-ethanesulfonyl-amino-2,6-difluoro-phenyl)-amide], for which the IC50 was less than 100 nM on V600E full-length B-Raf (setting [2]), 4.97 nM at V600E full-length B-Raf (setting [3]) and 25.9 nM in test [1].

Regarding `N#Cc1c(NS(=O)(=O)N2CCCC2)ccc(F)c1NC(=O)c1cccc2c(N)ncnc12` [Example 35, 4-Amino-quinazoline-8-carboxylic acid [2-cyano-6-fluoro-3-(pyrrolidine-1-sulfonylamino)-phenyl]-amide], the figures for the IC50 (at V600E full-length B-Raf (setting [2]); on V600E full-length B-Raf (setting [3]); in test [1]) were less than 100 nM, 0.16 nM and 7.48 nM, respectively.

On to `CCCS(=O)(=O)Nc1ccc(F)c(NC(=O)c2cc(C)cc3c(N)ncnc23)c1Cl` [Example 77, 4-Amino-6-methyl-quinazoline-8-carboxylic acid [2-chloro-6-fluoro-3-(propane-1-sulfonylamino)-phenyl]-amide], for which the IC50 on V600E full-length B-Raf (setting [2]) is less than 100 nM; on V600E full-length B-Raf (setting [3]) it was 0.45 nM; in test [1] it was 7.83 nM.

`C#Cc1c(NS(=O)(=O)CCC)ccc(Cl)c1NC(=O)c1cccc2c(N)ncnc12` [Example 31, 4-Amino-quinazoline-8-carboxylic acid [6-chloro-2-ethynyl-3-(propane-1-sulfonylamino)-phenyl]-amide]: the IC50 at V600E full-length B-Raf (setting [2]) is less than 100 nM; on V600E full-length B-Raf (setting [3]), 0.4 nM; in test [1], 42 nM.

As to `CCCS(=O)(=O)Nc1cc(Cl)cc(NC(=O)c2cccc3c(N)ncnc23)c1F` [Example 14, 4-Amino-quinazoline-8-carboxylic acid [5-chloro-2-fluoro-3-(propane-1-sulfonylamino)-phenyl]-amide], the IC50 was less than 100 nM on V600E full-length B-Raf (setting [2]), 27.9 nM on V600E full-length B-Raf (setting [3]) and 381 nM in test [1].

As for `CCCS(=O)(=O)Nc1cc(F)c(F)c(NC(=O)c2cccc3c(N)ncnc23)c1F` [Example 9, 4-Amino-quinazoline-8-carboxylic acid [2,3,6-trifluoro-5-(propane-1-sulfonylamino)-phenyl]-amide], the IC50 was less than 100 nM at V600E full-length B-Raf (setting [2]), 0.39 nM on V600E full-length B-Raf (setting [3]) and 12 nM in test [1].

As for `Nc1ncnc2c(C(=O)Nc3c(F)ccc(NS(=O)(=O)c4ccco4)c3F)cccc12` [Example 33, 4-Amino-quinazoline-8-carboxylic acid [2,6-difluoro-3-(furan-2-sulfonylamino)-phenyl]-amide], the IC50 is less than 100 nM on V600E full-length B-Raf (setting [2]), 0.17 nM on V600E full-length B-Raf (setting [3]) and 12.5 nM in test [1].

Consider `CN(C)S(=O)(=O)Nc1ccc(Cl)c(NC(=O)c2cccc3c(N)ncnc23)c1F` [Example 38, 4-Amino-N-(6-chloro-3-(N,N-dimethylsulfamoylamino)-2-fluorophenyl)quinazoline-8-carboxamide], for which the IC50 on V600E full-length B-Raf (setting [2]) was less than 100 nM; on V600E full-length B-Raf (setting [3]), 7.01 nM; in test [1], 28 nM.

As for `CCCS(=O)(=O)Nc1ccc(Cl)c(NC(=O)c2cccc3c(N)ncnc23)c1` [Example 22, 4-Amino-quinazoline-8-carboxylic acid [2-chloro-5-(propane-1-sulfonylamino)-phenyl]-amide], the values for the IC50 (on V600E full-length B-Raf (setting [2]); at V600E full-length B-Raf (setting [3]); in test [1]) were less than 100 nM, 64.9 nM and 1110 nM, respectively.
